Experimental data taken from patent US20230292743A1, “Method for increasing the lifespan and motility of animal sperm using an inhibitor of Slo3 potassium channel” (IMV TECHNOLOGIES, priority 2017, published 2023).

Key:
mouse sperm = assay: Ability of mouse sperm to fertilize oocytes after incubation in capacitation medium (in vitro fertilization, 2-cell embryos); format: cell-based; settings: vs control; for percentage of 2-cell embryos vs mature MII oocytes at 24 h post fertilization: 12 hours incubation prior fertilization; for percentage of 2-cell embryos vs mature oocytes at 48 h post fertilization: 5 μM clofilium in M16-BSA medium
Method: Mouse sperm was obtained by manual trituration of caudae epididymides from male and were allowed to swim in M2 medium (from Sigma) for 10 minutes. The M2 medium composition in g/L is as follows: CaCl2 0.25; MgSO4 (anhydrous) 0.1649; KCl 0.35635; K2HPO4 0.162; NaHCO3 0.35; NaCl 5.53193; Albumin, Bovine Fraction V 4.0; D-Glucose 1.0; HEPES (for 4-(2-HydroxyEthyl)-1-Piperazine EthaneSulfonic acid)×Na 5.42726; Pyruvic Acid×Na 0.0363; DL-Lactic Acid×Na 2.95). Sperm were then capacitated in M16 medium (from Sigma) with 2% fatty acid-free BSA (for Bovine Serum Albumin) (named “M16-BSA medium”) at 37° C. in a 5% v/v CO2 incubator for different times as specified. M16 medium is a commercial and commonly used medium for in vitro fertilization and culture of preimplantation stage embryos. Oocytes were collected from mature OF1 females, synchronized with 5 units of pregnant mare serum gonadotrophin (PMSG) and 5 units of human chorionic gonadotrophin (HCG). Cumulus were harvested directly from the ampulla and sperm were injected into the M16 droplets containing the cumulus. 1. The first test related to the ability of mouse sperm to fertilize oocytes when incubated prior fertilization in a capacitation medium containing clofilium with regard to a control medium, which is the same capacitation medium but without clofilium. The capacitation medium was M16-BSA medium. The control medium was the M16-BSA medium containing the sperm. It was compared to the same medium further including clofilium at a concentration of 5 μM (in the M16-BSA medium containing the sperm). Sperm was incubated in M16-BSA medium with or without clofilium and then added to M16 droplets containing the cumulus comprising the oocytes. Two-cell embryos were counted at 48 h post insemination (n=3). The number of oocytes reaching the two-cell stage were counted at 48 hours after fertilization. Two different concentrations of clofilium were tested: 0.2 μM of clofilium and 5 μM of clofilium (in the M16-BSA medium containing the sperm). The sperm incubation time prior fertilization was 12 hours. The test related to the ability of mouse sperm to fertilize oocytes, sperm being incubated prior fertilization in a medium containing quinidine with regard to a control medium, without quinidine. The control medium was the M16-BSA medium containing the sperm (“control”). It was compared to the same medium further including quinidine, at various concentrations 5 μM quinidine (“5 μM quinidine”), 10 μM quinidine (“10 μM quinidine”), 25 μM quinidine (“25 μM quinidine”) and 100 μM quinidine (“100 μM quinidine”).

bovine sperm = assay: CASA motility of bovine sperm subpopulation with VCL >150 μm/s, sperm frozen with clofilium; format: cell-based; settings: bovine sperm frozen with 0.2 μM clofilium, 24 h in capacitation medium with 0.2 μM clofilium, vs control
Method: However, only sperm presenting a sufficient velocity are able to cross the protective layers surrounding the egg and thus are competent for fertilizing eggs. To take this into account, sperm presenting a VCL >150 μm/s were selected and their velocity measured at different time (0 h and 24 h) in control condition or in the presence of clofilium. Sperm were frozen without clofilium (control) and with clofilium prior to test their motility. In the second case, clofilium was present during the sperm incubation period and during the capacitation period. Bovine ejaculate was split into two fractions, and diluted 1:1 in either Optixcell (Fraction 1) or Optixcell containing clofilium 0.2 μM (Fraction 2). After 10 minutes of 34° C. incubation, semen was then diluted to a final concentration of 57 million of spermatozoa/ml in Optixcell (Fraction 1) or Optixcell containing clofilium 0.2 μM (Fraction 2). Diluted semen was frozen as described above and stored in liquid nitrogen until in vitro fertilization. Thus, two types of straws were used: control straws and straws containing clofilium (0.2 μM ). Straws were thawed in a water-bath at 37° C. for 45 s. Each straw was wiped with 70° ethanol before opening. […] Spermatozoa presenting a VCL >150 μm/s were selected and their motility was measured using CASA, performed as above in control condition or in the presence of clofilium. […]

## CCCCCCC[N+](CC)(CC)CCCCc1ccc(Cl)cc1 [clofilium]
Mouse sperm; 0.2 μM clofilium
  percentage of 2-cell embryos vs mature MII oocytes at 24 h post fertilization: improves the mouse in vitro fertilization outcome
Mouse sperm; 3 h incubation period prior fertilization
  percentage of 2-cell embryos vs mature oocytes at 48 h post fertilization: not significantly different than that of control
Mouse sperm; long incubation periods (>3 hours) prior fertilization
  percentage of 2-cell embryos vs mature oocytes at 48 h post fertilization: higher number of 2-cell stages than what was observed with the control
Mouse sperm; short incubation periods (<3 hours) prior fertilization
  percentage of 2-cell embryos vs mature oocytes at 48 h post fertilization: positive effect
Mouse sperm; 5 μM clofilium
  percentage of 2-cell embryos vs mature MII oocytes at 24 h post fertilization: potent
Bovine sperm
  motility (in terms of VCL) of sperm subpopulation with VCL >150 μm/s: higher mean velocity
